{"source": "patent US8252283B2", "about": "“Method for treating vascular disorders” (Cytotools GmbH, priority 1999, dated 2012)", "key": {"HUVEC [1]": {"tested_on": "HUVEC", "test": "Apoptosis rate after cone and plate shear pre-cultivation and transfer to static wells, DAPI staining (Examples 11, 12)", "type": "cell-based, human", "conditions": "for Apoptosis rate (%) with EGTA and with peptides: 0.5 mM EGTA, RGD peptide 250 μg/ml + IAP peptide 400 μg/ml", "description": "The cone and plate shear apparatus is first cleaned with a soft cloth and 70% ethanol, the cone is sterilized, and the apparatus is then stabilized at 37° C. in a heating cabinet for at least 30 min. The precultivated cells are washed with culture medium and provided with 0.06 ml/cm^2 fresh culture medium, and the culture dish is rapidly fitted into the cone and plate shear apparatus.\nThe cone is raised using the coarse adjustment, and the culture dish together with lid is carefully inserted into the holder provided therefor. The lid is taken off and the cone is lowered onto the culture dish and adjusted: the tip of a cone is then a minimal distance from the cell lawn and the cone moves round without abrading. The assembled cone and plate shear apparatus is placed in an incubator at 37° C., 5% (v/v) CO2 with a water vapor-saturated atmosphere for dynamic cultivation of the cells.\n(§1) The culture supernatant is aspirated off of a Petri dish, and the cell lawn is fixed with 1 ml of formaldehyde solution on ice for 15 minutes, washed twice with 2 ml of PBS, treated with 0.5 ml of DAPI solution for 15 minutes, washed with PBS and evaluated under a fluorescence microscope. The UV filter set and a 20× or 40× objective are used. 500-1 000 cells are selected at random, and the cells with apoptotic nuclei are counted.\nThe culture dish is removed and divided into 12 independent culture wells (culture area of each well 0.8 cm^2) by putting in a suitable insert. Half of the culture is cultivated in culture medium with EGTA and the second half is cultivated in culture medium without EGTA. […] The apoptosis rate is determined by staining the apoptotic cells with DAPI."}, "HUVEC [2]": {"tested_on": "HUVEC", "test": "Induced calcium influx into the cells, intracellular calcium indicator Fluo-3 AM", "type": "cell-based, human", "conditions": "static culture, measured at addition of substance", "procedure": "Fluo-3 is a calcium indicator which forms a fluorescent complex after binding of Ca^2+. The ester Fluo-3 AM is taken up by the cells through diffusion. The calcium indicator Fluo 3 is produced only after hydrolysis of the ester in the cell. […] The measurement is carried out with normal fluorescein filters. At an excitation wavelength of 488 nm (500 nm), the emission maximum is at 525 nm and increases by a factor of 100 (200) through calcium binding.\nConfluent HUVEC cell lawns in 24-well plates are washed three times with serum-free medium, incubated with preheated serum-free medium with Fluo-3 AM under culture conditions for 30 minutes and washed three times, and the plate is measured with a fluorimeter. First the sensitivity of the instrument is adjusted, and then fluorescence values corresponding to the instantaneous calcium level in the cell are recorded every 1-10 seconds. Substances can be added to the cells while the measurement is taking place. […] Assessment of the calcium level is possible with this method.\nThe influx of calcium into the cells can be employed as early indicator.\nThe test system can also be carried out with the calcium indicator Fluo-3 AM. […] The cells are employed for the test after complete confluence is reached. […] During the measurement, the substances b, c, e, f, g are added to the cells. […]"}, "[3]": {"tested_on": "human umbilical vein endothelial cells (HUVEC)", "test": "Apoptosis rate of confluent endothelial cells in static culture, DAPI staining", "type": "cell-based", "conditions": "for Effect on the apoptosis rate (in words): substance(s) added to fresh medium", "description": "HUVEC are cultivated in gelatin-coated culture vessels at 37° C., 5% CO2 with a water vapor-saturated air atmosphere. The culture medium is changed every 2-3 days; at confluence, the cells are passaged with a division rate of from 1:3 to 1:5. HUVEC grow with strict contact inhibition and form monolayer cell lawns with a typical cobblestone morphology. At confluence, the cultures reach cell densities of 4-9×10^4 cells/cm^2. Only HUVEC cultures of passages 1-4 are used for apoptosis investigations.\nas §1\nThe apoptosis index is calculated by the following formula: […]\n(§2) After complete confluence is reached, the cells are employed for the test. Firstly, thrombospondin 1 is added in various concentrations (1-600 μg/ml) to fresh medium and compared with the effect of conditioned medium on the spontaneous apoptosis rate of HUVEC. […] The apoptosis rate is determined by staining apoptotic cells with DAPI.\nThe cells are seeded into the appropriate culture vessels (e.g. 24-well plate/0.5 ml per well) and employed for the test after complete confluence is reached. Investigations into the effect of various peptides and proteins (table 2) on the apoptosis rate of endothelial cells are carried out.\nThe cells are seeded in the appropriate culture vessels (e.g. 24-well plate/0.5 ml per well) and employed for the test after complete confluence is reached. […] The apoptotic cells and the total cell count are determined and the apoptosis index is calculated (percent of apoptotic cells). The data of 3 independent experiments are indicated in table 1, stating the mean and standard deviation."}, "perfused HUVEC": {"tested_on": "perfused HUVEC", "test": "Apoptosis rate of endothelial cells in dynamic (perfusion) culture, DAPI staining", "type": "cell-based, human", "conditions": "for Effect on apoptosis (in words): perfusion culture", "description": "as §1, §2"}, "[4]": {"conditions": "static, 48 h, substance(s) in fresh medium, TSP 1 μg/ml, RGD 250 μg/ml, CBD 400 μg/ml"}}, "note": "Entries after “also recorded” stand apart in the source; their conditions may differ.", "data": [{"compound": "O=C(O)CN(CCOCCOCCN(CC(=O)O)CC(=O)O)CC(=O)O", "note": "[EGTA]", "values": [{"measurement": "Apoptosis rate (%) with EGTA [2.5 mM]", "setting": "HUVEC [1]; 0 hours", "value": "0.40 ± 0.22", "unit": "%"}, {"measurement": "Apoptosis rate (%) with EGTA and with peptides", "setting": "HUVEC [1]; 0 hours", "value": "0.45 ± 0.24", "unit": "%"}, {"measurement": "Apoptosis rate (%) with EGTA [2.5 mM]", "setting": "HUVEC [1]; 2 hours", "value": "0.42 ± 0.22", "unit": "%"}, {"measurement": "Apoptosis rate (%) with EGTA and with peptides", "setting": "HUVEC [1]; 2 hours", "value": "1.00 ± 0.29", "unit": "%"}, {"measurement": "Apoptosis rate (%) with EGTA [2.5 mM]", "setting": "HUVEC [1]; 3 hours", "value": "0.96 ± 0.27", "unit": "%"}, {"measurement": "Apoptosis rate (%) with EGTA and with peptides", "setting": "HUVEC [1]; 3 hours", "value": "0.65 ± 0.24", "unit": "%"}, {"measurement": "Apoptosis rate (%) with EGTA [2.5 mM]", "setting": "HUVEC [1]; 4 hours", "value": "1.56 ± 0.23", "unit": "%"}, {"measurement": "Apoptosis rate (%) with EGTA and with peptides", "setting": "HUVEC [1]; 4 hours", "value": "1.25 ± 0.33", "unit": "%"}, {"measurement": "Apoptosis rate (%) with EGTA [2.5 mM]", "setting": "HUVEC [1]; 5 hours", "value": "2.26 ± 0.35", "unit": "%"}, {"measurement": "Effect on the apoptosis rate (in words)", "setting": "HUVEC [1]; EGTA in culture medium with the active peptides", "value": "significant reduction in the apoptosis rate"}, {"measurement": "Effect on the apoptosis rate (in words)", "setting": "HUVEC [1]; culture medium with 2.5 mmol/l EGTA, static after shear apparatus", "value": "significant reduction in the apoptosis rate"}]}, {"compound": "Thrombospondin 1 [TSP-1]", "values": [{"measurement": "Effect on intracellular calcium level (in words)", "setting": "HUVEC [2]", "value": "increase in the intracellular calcium level; also recorded: calcium influx into the cell"}, {"measurement": "Apoptosis rate (%)", "setting": "[3]; static culture, 24 h, substance alone (in fresh medium; TSP-1 1 μg/ml, antiserum 1:20, mAb 1:30)", "value": "3.0 ± 0.4", "unit": "%"}, {"measurement": "Effect on the apoptosis rate (in words)", "setting": "[3]; static culture", "value": "increase in spontaneous apoptosis"}, {"measurement": "Effect on the apoptosis rate (in words)", "setting": "[3]; static culture, listed as thrombospondin", "value": "significant increase in the apoptosis rate"}, {"measurement": "Apoptosis rate (%) after 24 h", "setting": "[3]; static culturing conditions, TSP-1 1 μg/ml", "value": "3.0 ± 0.4", "unit": "%"}, {"measurement": "Apoptosis rate (%)", "setting": "[3]; [4]", "value": "6.9 ± 1.2", "unit": "%"}, {"measurement": "Apoptosis rate [%] (with SEM)", "setting": "[3]; static, 48 hours, fresh medium + TSP-1 1 μg/ml alone", "value": "7.3 ± 0.6", "unit": "%"}, {"measurement": "Apoptosis rate (%) after 24 h", "setting": "perfused HUVEC; dynamic culturing conditions, TSP-1 1 μg/ml", "value": "<0.1", "unit": "%"}, {"measurement": "Effect on apoptosis (in words)", "setting": "perfused HUVEC", "value": "no effect on apoptosis"}, {"measurement": "Effect on apoptosis (in words)", "setting": "perfused HUVEC; listed as Thrombospondin", "value": "no effect on perfused HUVEC"}]}, {"compound": "cyclic Arg-Gly-Asp-(D-Phe)-Val peptide [active RGD]", "values": [{"measurement": "Effect on the apoptosis rate (in words)", "setting": "[3]; static culture", "value": "no effect on the apoptosis rate"}, {"measurement": "Apoptosis rate (%)", "setting": "[3]; [4]", "value": "1.2 ± 0.5", "unit": "%"}]}]}
